The target of this test is T1, hmGlu5 (Homo sapiens, UniProt P41594).
T1 construct: expressed in transfected cells; host or cells: HEK 293A
Kind of test: mGlu5 Ca2+ flux assay in HEK 293A cells (negative allosteric modulation of glutamate EC80 response). As to conditions: for remaining activity at 30 µM: HEK293-A, read-out: hmGlu5 NAM Emin (%); for IC50: HEK 293A cells, Ca2+ flux, glutamate EC80, >10,000 = decrease without plateau, read-out: hmGlu5 NAM IC50. It counts as cell-based. How it is done: HEK 293A cells stably expressing either rat or human mGlu5 were plated in black-walled, clear-bottomed, poly-D-lysine coated 384-well plates in 20 μL of assay medium (DMEM containing 10% dialyzed FBS, 20 mM HEPES, 100 units/mL penicillin/streptomycin plus 250 ng/mL Fungizone, and 1 mM sodium pyruvate) at a density of 20K cells/well. The cells were grown overnight at 37° C. in the presence of 5% CO2. The next day, medium was removed and the cells incubated with 20 μL of 2.3 μM Fluo-4, AM prepared as a 2.3 mM stock in DMSO and mixed in a 1:1 ratio with 10% (w/v) pluronic acid F-127 and diluted in assay buffer (Hank's balanced salt solution, 20 mM HEPES, and 2.5 mM probenecid) for 45 minutes at 37° C. Dye was removed, 20 μL of assay buffer was added, and the plate was incubated for 5 minutes at room temperature.
Ca^2+ flux was measured using the Functional Drug Screening System (FDSS7000, Hamamatsu, Japan). After establishment of a fluorescence baseline for about 3 seconds, the compounds of the present invention were added to the cells, and the response in cells was measured. 2.3 minutes later an EC20 concentration of the mGlu5 receptor agonist glutamate was added to the cells, and the response of the cells was measured for 1.9 minutes; an EC80 concentration of agonist was added and readings taken for an additional 1.7 minutes. All test compounds were dissolved and diluted to a concentration of 10 mM in 100% DMSO. Compounds were then serially diluted 1:3 in DMSO into 10 point concentration response curves, transferred to daughter plates, and further diluted into assay buffer to a 2× stock. Calcium fluorescence measures were recorded as fold over basal fluorescence; raw data was then normalized to the maximal response to glutamate. Antagonism of the agonist response of the mGlu5 receptor in the present invention was observed as a decrease in response to nearly maximal concentrations of glutamate in the presence of compound compared to the response to glutamate in the absence of compound.
The raw data file containing all time points was used as the data source in the analysis template. This was saved by the FDSS as a tab-delimited text file. Data were normalized using a static ratio function (F/F0) for each measurement of the total 360 values per well divided by each well's initial value. Data were then reduced to peak amplitudes (Max−Initial Min) using a time range that starts approximately 3 seconds prior to the glutamate EC20/EC80 addition and continues for approximately 90-120 seconds. This is sufficient time to capture the peak amplitude of the cellular calcium response. Individual amplitudes were expressed as % EMax by multiplying each amplitude by 100 and then dividing the product by the mean of the amplitudes derived from the glutamate ECMax-treated wells. IC50 values for test compounds were generated by fitting the normalized values versus the log of the test compound concentration (in mol/L) using a 4 parameter logistic equation where none of the parameters were fixed. Each of the three values collected at each concentration of test compound were weighted evenly.
For NAMs with a CRC that plateaus above 10% Glu Max, the IC50 values are reported, the compound is designated a “partial NAM” and the % Glu Max is reported. […] Compounds without measurable activity are designated as “>30,000 nM” since the top concentration of compound tested in the assay is 30 μM. […]
On the technique in general: Calcium assays in cells follow changes in intracellular calcium, usually with a dye or a luminescent sensor.

Like-named read-outs stand apart in the source and are kept apart here.

T1 sequence (P41594 21-1212): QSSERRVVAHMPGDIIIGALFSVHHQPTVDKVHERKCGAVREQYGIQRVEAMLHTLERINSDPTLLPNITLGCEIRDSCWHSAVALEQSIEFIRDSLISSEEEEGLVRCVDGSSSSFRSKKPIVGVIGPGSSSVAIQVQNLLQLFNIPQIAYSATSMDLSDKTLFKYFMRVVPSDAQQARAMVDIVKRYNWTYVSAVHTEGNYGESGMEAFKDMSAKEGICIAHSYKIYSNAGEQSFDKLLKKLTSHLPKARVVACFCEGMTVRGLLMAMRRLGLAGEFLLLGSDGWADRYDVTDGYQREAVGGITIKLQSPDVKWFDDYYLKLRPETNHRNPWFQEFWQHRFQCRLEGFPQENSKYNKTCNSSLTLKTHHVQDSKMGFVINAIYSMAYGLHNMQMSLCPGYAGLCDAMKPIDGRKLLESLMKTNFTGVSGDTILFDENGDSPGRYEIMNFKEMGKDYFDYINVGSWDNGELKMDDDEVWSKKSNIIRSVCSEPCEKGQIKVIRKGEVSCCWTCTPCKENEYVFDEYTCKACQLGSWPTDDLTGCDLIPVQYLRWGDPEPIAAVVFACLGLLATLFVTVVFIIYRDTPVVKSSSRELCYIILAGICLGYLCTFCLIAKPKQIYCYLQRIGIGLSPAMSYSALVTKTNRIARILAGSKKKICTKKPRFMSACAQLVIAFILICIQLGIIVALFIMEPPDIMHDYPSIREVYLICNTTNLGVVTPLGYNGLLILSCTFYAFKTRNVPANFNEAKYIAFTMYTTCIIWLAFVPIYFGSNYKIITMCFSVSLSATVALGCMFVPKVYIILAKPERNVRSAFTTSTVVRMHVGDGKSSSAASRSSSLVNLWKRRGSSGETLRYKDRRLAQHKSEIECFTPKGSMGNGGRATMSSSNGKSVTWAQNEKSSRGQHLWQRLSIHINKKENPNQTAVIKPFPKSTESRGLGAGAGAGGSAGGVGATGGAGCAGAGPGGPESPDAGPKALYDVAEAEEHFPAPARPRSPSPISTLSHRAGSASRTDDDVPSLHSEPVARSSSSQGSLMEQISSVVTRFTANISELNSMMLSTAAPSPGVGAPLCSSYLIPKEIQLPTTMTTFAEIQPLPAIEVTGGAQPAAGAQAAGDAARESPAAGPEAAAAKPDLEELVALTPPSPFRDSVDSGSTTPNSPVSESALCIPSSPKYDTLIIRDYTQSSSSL

Consider `COc1ccnc(-c2nc(-c3cc(-c4cnccc4C)c(F)c(C)n3)no2)c1` [Compound 25, 3-(5′-fluoro-4,6′-dimethyl-[3,4′-bipyridin]-2′-yl)-5-(4-methoxypyridin-2-yl)-1,2,4-oxadiazole], for which the IC50 amounted to 3380 nM. Further, under “% Glu max at 30 μM”, the remaining activity at 30 µM stood at 12%.
Regarding `Cc1ccncc1-c1cc(-c2noc(-c3ccc(Cl)cn3)n2)nc(C)c1F` [Compound 26, 5-(5-chloropyridin-2-yl)-3-(5′-fluoro-4,6′-dimethyl-[3,4′-bipyridin]-2′-yl)-1,2,4-oxadiazole], the IC50 amounted to 575 nM. Besides, for the setting “% Glu max at 30 μM”, the remaining activity at 30 µM stood at 2%.
`Cc1ccncc1-c1cc(-c2noc(-c3cscn3)n2)nc(C)c1F` [Compound 27, 3-(5′-fluoro-4,6′-dimethyl-[3,4′-bipyridin]-2′-yl)-5-(thiazol-4-yl)-1,2,4-oxadiazole]: the IC50 came out at 308 nM. For the same molecule, the remaining activity at 30 µM (% Glu max at 30 μM) stood at 2%.
As to `Cc1cccc(-c2nc(-c3cc(-c4cnccc4C)c(F)c(C)n3)no2)c1` [Compound 28, 3-(5′-fluoro-4,6′-dimethyl-[3,4′-bipyridin]-2′-yl)-5-(m-tolyl)-1,2,4-oxadiazole], the IC50 was 69 nM. The remaining activity at 30 µM (% Glu max at 30 μM) came to 2%.
As for `Cc1nc(-c2noc(-c3ccc(F)cn3)n2)cc(-c2ccc(C(F)(F)F)nc2)c1F` [Compound 29, 3-(5′-fluoro-6′-methyl-6-(trifluoromethyl)-[3,4′-bipyridin]-2′-yl)-5-(5-fluoropyridin-2-yl)-1,2,4-oxadiazole], the IC50 was determined as 1720 nM. Further, the remaining activity at 30 µM (% Glu max at 30 μM) was determined as 37%.
With `COc1cncc(-c2cc(-c3noc(-c4ccc(F)cn4)n3)nc(C)c2F)c1` [Compound 30, 3-(5′-fluoro-5-methoxy-6′-methyl-[3,4′-bipyridin]-2′-yl)-5-(5-fluoropyridin-2-yl)-1,2,4-oxadiazole], the IC50 amounted to 493 nM. Moreover, the remaining activity at 30 µM (% Glu max at 30 μM) worked out at 3%.
As for `Cc1nc(-c2noc(-c3ccc(F)cn3)n2)cc(-c2ccc(C3CC3)nc2)c1F` [Compound 31, 3-(6-cyclopropyl-5′-fluoro-6′-methyl-[3,4′-bipyridin]-2′-yl)-5-(5-fluoropyridin-2-yl)-1,2,4-oxadiazole], the IC50 was 3090 nM. For the setting “% Glu max at 30 μM”, the remaining activity at 30 µM came out at 20%.
With `Cc1nc(-c2noc(-c3ccc(F)cn3)n2)cc(-c2cc(F)cnc2Cl)c1F` [Compound 32, 3-(2-chloro-5,5′-difluoro-6′-methyl-[3,4′-bipyridin]-2′-yl)-5-(5-fluoropyridin-2-yl)-1,2,4-oxadiazole], the IC50 was 359 nM. For the setting “% Glu max at 30 μM”, the remaining activity at 30 µM amounted to 3%.
As for `Cc1nc(-c2noc(-c3ccc(F)cn3)n2)cc(-c2cncc(C(F)(F)F)c2)c1F` [Compound 33, 3-(5′-fluoro-6′-methyl-5-(trifluoromethyl)-[3,4′-bipyridin]-2′-yl)-5-(5-fluoropyridin-2-yl)-1,2,4-oxadiazole], the IC50 turned out to be 1020 nM. Besides, under “% Glu max at 30 μM”, the remaining activity at 30 µM is 9%.
On to `Cc1nc(-c2noc(-c3ccc(F)cn3)n2)cc(-c2ccc(Cl)nc2)c1F` [Compound 34, 3-(6-chloro-5′-fluoro-6′-methyl-[3,4′-bipyridin]-2′-yl)-5-(5-fluoropyridin-2-yl)-1,2,4-oxadiazole], for which the half-maximal inhibitory concentration (IC50) was determined as 577 nM. Further, the remaining activity at 30 µM (% Glu max at 30 μM) is 8%.
`[2H]C([2H])([2H])c1cc(-c2cncc(F)c2)cc(-c2noc(-c3ccc(F)cn3)n2)n1` [Compound 35, 3-(5-fluoro-6′-(methyl-d3)-[3,4′-bipyridin]-2′-yl)-5-(5-fluoropyridin-2-yl)-1,2,4-oxadiazole]: the IC50 turned out to be 207 nM. For the same molecule, the remaining activity at 30 µM (% Glu max at 30 μM) was determined as 2%.
Turning to `Cc1nc(-c2noc(C3CCCCC3)n2)cc(-c2cncc(F)c2)c1F` [Compound 36, 5-cyclohexyl-3-(5,5′-difluoro-6′-methyl-[3,4′-bipyridin]-2′-yl)-1,2,4-oxadiazole], the IC50 is greater than 10000 nM. The remaining activity at 30 µM (% Glu max at 30 μM) came to 51%.
As for `Cc1nc(-c2noc(C3CCOCC3)n2)cc(-c2cncc(F)c2)c1F` [Compound 37, 3-(5,5′-difluoro-6′-methyl-[3,4′-bipyridin]-2′-yl)-5-(tetrahydro-2H-pyran-4-yl)-1,2,4-oxadiazole], the half-maximal inhibitory concentration (IC50) was greater than 10000 nM. In addition, the remaining activity at 30 µM (% Glu max at 30 μM) came to 54%.
Consider `Cc1nc(-c2noc(-c3cccc(F)c3)n2)cc(-c2cncc(F)c2)c1F` [Compound 38, 3-(5,5′-difluoro-6′-methyl-[3,4′-bipyridin]-2′-yl)-5-(3-fluorophenyl)-1,2,4-oxadiazole], for which the IC50 is 2410 nM. Moreover, under “% Glu max at 30 μM”, the remaining activity at 30 µM amounted to 14%.
With `Fc1ccc(-c2nc(-c3cc(-c4cncc(F)c4)cc(C4CCC4)n3)no2)nc1` [Compound 39, 3-(6′-cyclobutyl-5-fluoro-[3,4′-bipyridin]-2′-yl)-5-(5-fluoropyridin-2-yl)-1,2,4-oxadiazole], the IC50 amounted to 1910 nM. For the same molecule, the remaining activity at 30 µM (% Glu max at 30 μM) came out at 58%.
In the case of `Cc1ccncc1-c1cc(-c2nnc(-c3cccc(F)c3)o2)nc(C)c1F` [Compound 40, 2-(5′-fluoro-4,6′-dimethyl-[3,4′-bipyridin]-2′-yl)-5-(3-fluorophenyl)-1,3,4-oxadiazole], the IC50 worked out at 705 nM. Also, the remaining activity at 30 µM (% Glu max at 30 μM) stood at 2%.
`Cc1nc(-c2noc(-c3ccc(F)cn3)n2)cc(-c2cncc(F)c2C)c1F` [Compound 41, 3-(5,5′-difluoro-4,6′-dimethyl-[3,4′-bipyridin]-2′-yl)-5-(5-fluoropyridin-2-yl)-1,2,4-oxadiazole]: the IC50 is 304 nM. Moreover, the remaining activity at 30 µM (% Glu max at 30 μM) came to 2%.
The like results for `Cc1ccncc1-c1cc(-c2nnc(-c3ccc(F)cn3)o2)nc(C)c1F` [Compound 42, 2-(5′-fluoro-4,6′-dimethyl-[3,4′-bipyridin]-2′-yl)-5-(5-fluoropyridin-2-yl)-1,3,4-oxadiazole] were, in that order, 375 nM and 2%.
As to `Cc1nc(-c2nnc(-c3ccc(F)cn3)o2)cc(-c2cncc(F)c2)c1F` [Compound 43, 2-(5,5′-difluoro-6′-methyl-[3,4′-bipyridin]-2′-yl)-5-(5-fluoropyridin-2-yl)-1,3,4-oxadiazole], the remaining activity at 30 µM was 2% and the IC50 came out at 179 nM.
The like results for `Cc1nc(-c2noc(-c3cccc(Cl)c3)n2)cc(-c2cncc(F)c2)c1F` [Compound 44, 5-(3-chlorophenyl)-3-(5,5′-difluoro-6′-methyl-[3,4′-bipyridin]-2′-yl)-1,2,4-oxadiazole] were, in that order, 34% and 5800 nM.
`Cc1nc(-c2nnc(-c3ccc(F)cn3)o2)cc(-c2cncc(F)c2)c1OC(C)C` [Compound 45, 2-(5-fluoro-5′-isopropoxy-6′-methyl-[3,4′-bipyridin]-2′-yl)-5-(5-fluoropyridin-2-yl)-1,3,4-oxadiazole]: the IC50 turned out to be 946 nM. Where the note is “% Glu max at 30 μM”, the remaining activity at 30 µM stood at 2%.
`Cc1nc(-c2nc(-c3ccc(F)cc3)no2)cc(-c2cncc(F)c2)c1F` [Compound 46, 5-(5,5′-difluoro-6′-methyl-[3,4′-bipyridin]-2′-yl)-3-(4-fluorophenyl)-1,2,4-oxadiazole]: the IC50 worked out at 677 nM. Also, the remaining activity at 30 µM (% Glu max at 30 μM) worked out at 3%.
Regarding `Cc1nc(-c2noc(-c3ccccc3F)n2)cc(-c2cncc(F)c2)c1F` [Compound 47, 3-(5,5′-difluoro-6′-methyl-[3,4′-bipyridin]-2′-yl)-5-(2-fluorophenyl)-1,2,4-oxadiazole], the IC50 stood at 5500 nM. Further, under “% Glu max at 30 μM”, the remaining activity at 30 µM was 34%.

Broadly, the IC50 is the concentration that gives 50% inhibition.

For the origin of these results see patent US20250026743A1, “HETEROARYL-LINKED ANALOGS AS MGLU5 NEGATIVE ALLOSTERIC MODULATORS AND METHODS OF MAKING AND USING THE SAME” (Vanderbilt University, priority 2021, published 2025).
